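Following 48 hours of exposure in 96-well plates, responses at five concentrations were used to interpolate endpoints linearly. GI50: concentration for 50% inhibition of growth.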 Activity calls are given as the source filed them. Cut-off read from the data, not from the text of the source: active = GI50 up to about 1.1 µM and inactive = higher.
Assays:
Test in all cases: inhibition of tumour cell growth, NCI panel, 48 h
SK-MEL-5 = system: SK-MEL-5
HCT-15 = system: HCT-15
HCT-116 = system: HCT-116
SF-268 = system: SF-268
OVCAR-8 = system: OVCAR-8
MOLT-4 = system: MOLT-4
UACC-257 = system: UACC-257
TK-10 = system: TK-10
SK-OV-3 = system: SK-OV-3
HOP-62 = system: HOP-62
SK-MEL-2 = system: SK-MEL-2
MDA-N = system: MDA-N
T47D = system: T47D
CCRF-CEM = system: CCRF-CEM
EKVX = system: EKVX
786-0 = system: 786-0
SNB-75 = system: SNB-75
SR = system: SR
COLO 205 = system: COLO 205
OVCAR-5 = system: OVCAR-5
NCI-H226 = system: NCI-H226
NCI-H522 = system: NCI-H522
Hs-578T = system: Hs-578T
UACC-62 = system: UACC-62
A549 = system: A549
KM12 = system: KM12
U-251 = system: U-251
NCI/ADR-RES = system: NCI/ADR-RES
HT-29 = system: HT-29
SW-620 = system: SW-620
A498 = system: A498
Malme-3M = system: Malme-3M
HOP-92 = system: HOP-92
DU-145 = system: DU-145
IGROV-1 = system: IGROV-1
K562 = system: K562
BT-549 = system: BT-549
ACHN = system: ACHN
RPMI-8226 = system: RPMI-8226
RXF 393 = system: RXF 393
MDA-MB-435 = system: MDA-MB-435
SK-MEL-28 = system: SK-MEL-28
SF-539 = system: SF-539
SF-295 = system: SF-295
M14 = system: M14
PC-3 = system: PC-3
SN12C = system: SN12C
MCF7 = system: MCF7
NCI-H460 = system: NCI-H460
MDA-MB-231 = system: MDA-MB-231
OVCAR-3 = system: OVCAR-3
LOX IMVI = system: LOX IMVI
UO-31 = system: UO-31
SNB-19 = system: SNB-19
HCC 2998 = system: HCC 2998
CAKI-1 = system: CAKI-1
OVCAR-4 = system: OVCAR-4
NCI-H23 = system: NCI-H23
HL-60 = system: HL-60

For `CN(C)CCn1c(=O)nc2c3c(c([N+](=O)[O-])ccc31)Nc1ccc(O)cc1-2`, the GI50 (SK-MEL-5) was 4.45 µM (inactive), the GI50 (HCT-15) was 16.7 µM and the GI50 (HCT-116) was 1.57 µM (inactive). The GI50 (SF-268) was 1.95 µM (inactive), the GI50 (OVCAR-8) was 1.82 µM (inactive) and the GI50 (MOLT-4) was 0.0638 µM (active). The GI50 (UACC-257) was 8.28 µM (inactive), the GI50 (TK-10) was 4.66 µM (inactive) and the GI50 (SK-OV-3) was 15.3 µM (inactive). The GI50 (HOP-62) was 2.47 µM (inactive), the GI50 (SK-MEL-2) was 15.7 µM (inactive) and the GI50 (MDA-N) was 6.7 µM (inactive). The GI50 (T47D) was 2.37 µM (inactive), the GI50 (CCRF-CEM) was 0.948 µM (active) and the GI50 (EKVX) was 8.04 µM (inactive). For the same compound, the GI50 (786-0) was 1.67 µM (inactive), the GI50 (SNB-75) was 6.28 µM (inactive) and the GI50 (SR) was 1.12 µM (inactive). The GI50 (COLO 205) was 2.72 µM (inactive), the GI50 (OVCAR-5) was 15.1 µM (inactive) and the GI50 (NCI-H226) was 3.37 µM (inactive). For the same compound, the GI50 (NCI-H522) was 1.43 µM (inactive), the GI50 (Hs-578T) was 3.95 µM (inactive) and the GI50 (UACC-62) was 4.5 µM (inactive). For the same compound, the GI50 (A549) was 2.53 µM (inactive), the GI50 (KM12) was 5.47 µM (inactive) and the GI50 (U-251) was 1.53 µM (inactive). For the same compound, the GI50 (NCI/ADR-RES) was 34.2 µM (inactive), the GI50 (HT-29) was 0.959 µM (active) and the GI50 (SW-620) was 1.73 µM (inactive). For the same compound, the GI50 (A498) was 6.32 µM (inactive), the GI50 (Malme-3M) was 3.67 µM (inactive) and the GI50 (HOP-92) was 2.69 µM (inactive). The GI50 (DU-145) was 4.36 µM (inactive), the GI50 (IGROV-1) was 1.16 µM (inactive) and the GI50 (K562) was 2.41 µM (inactive). For the same compound, the GI50 (BT-549) was 14.5 µM (inactive), the GI50 (ACHN) was 3.44 µM (inactive) and the GI50 (RPMI-8226) was 4.16 µM (inactive). For the same compound, the GI50 (RXF 393) was 1.63 µM (inactive), the GI50 (MDA-MB-435) was 10.4 µM (inactive) and the GI50 (SK-MEL-28) was 14.8 µM (inactive). For the same compound, the GI50 (SF-539) was 1.7 µM (inactive), the GI50 (SF-295) was 7.21 µM (inactive) and the GI50 (M14) was 13.4 µM (inactive). For the same compound, the GI50 (PC-3) was 4.25 µM (inactive), the GI50 (SN12C) was 2.61 µM (inactive) and the GI50 (MCF7) was 1.32 µM (inactive). The GI50 (NCI-H460) was 0.977 µM (active), the GI50 (MDA-MB-231) was 2.07 µM (inactive) and the GI50 (OVCAR-3) was 2.01 µM (inactive). For the same compound, the GI50 (LOX IMVI) was 1.27 µM (inactive), the GI50 (UO-31) was 3.44 µM (inactive) and the GI50 (SNB-19) was 2.03 µM (inactive). For the same compound, the GI50 (HCC 2998) was 2.48 µM (inactive), the GI50 (CAKI-1) was 5.53 µM (inactive) and the GI50 (OVCAR-4) was 9.68 µM (inactive). The GI50 (NCI-H23) was 5.46 µM (inactive).
In the case of `OCCN=C1c2ccccc2C2C(c3ccccc31)C1c3ccccc3C(=NCCO)c3ccccc3C21` (configuration not stated), the GI50 (SK-MEL-5) was 16.8 µM (inactive), the GI50 (HCT-15) was 17.4 µM and the GI50 (HCT-116) was 15.5 µM (inactive). The GI50 (SF-268) was 23.2 µM (inactive), the GI50 (OVCAR-8) was 26.9 µM (inactive) and the GI50 (MOLT-4) was 8.91 µM (inactive). For the same compound, the GI50 (UACC-257) was 24.7 µM (inactive), the GI50 (TK-10) was 26.4 µM (inactive) and the GI50 (SK-OV-3) was 22.2 µM (inactive). The GI50 (HOP-62) was 18.1 µM (inactive), the GI50 (SK-MEL-2) was 16.4 µM (inactive) and the GI50 (MDA-N) was 15.6 µM (inactive). For the same compound, the GI50 (T47D) was 21.6 µM (inactive), the GI50 (CCRF-CEM) was 11.6 µM (inactive) and the GI50 (EKVX) was 35.9 µM (inactive). The GI50 (786-0) was 28.2 µM (inactive), the GI50 (SNB-75) was 20.4 µM (inactive) and the GI50 (SR) was 9.48 µM (inactive). The GI50 (COLO 205) was 15.6 µM (inactive), the GI50 (OVCAR-5) was 19.6 µM (inactive) and the GI50 (NCI-H226) was < 0.01 µM (active). The GI50 (Hs-578T) was 12.6 µM (inactive), the GI50 (UACC-62) was 15.3 µM (inactive) and the GI50 (A549) was 20.6 µM (inactive). For the same compound, the GI50 (KM12) was 17.1 µM (inactive), the GI50 (U-251) was 20.2 µM (inactive) and the GI50 (NCI/ADR-RES) was 22.2 µM (inactive). The GI50 (HT-29) was 15.4 µM (inactive), the GI50 (SW-620) was 26.1 µM (inactive) and the GI50 (Malme-3M) was 32.4 µM (inactive). For the same compound, the GI50 (DU-145) was 21.7 µM (inactive), the GI50 (IGROV-1) was 15.5 µM (inactive) and the GI50 (K562) was 12.6 µM (inactive). The GI50 (BT-549) was 23.6 µM (inactive), the GI50 (ACHN) was 23.6 µM (inactive) and the GI50 (HL-60) was 13.9 µM (inactive). For the same compound, the GI50 (RPMI-8226) was 13.6 µM (inactive), the GI50 (RXF 393) was 22.8 µM (inactive) and the GI50 (MDA-MB-435) was 18 µM (inactive). The GI50 (SK-MEL-28) was 17.5 µM (inactive), the GI50 (SF-539) was 18 µM (inactive) and the GI50 (SF-295) was 12.9 µM (inactive). For the same compound, the GI50 (M14) was 20.1 µM (inactive), the GI50 (PC-3) was 17.2 µM (inactive) and the GI50 (SN12C) was 18.6 µM (inactive). The GI50 (MCF7) was 20.3 µM (inactive), the GI50 (NCI-H460) was 26.9 µM (inactive) and the GI50 (MDA-MB-231) was 13.8 µM (inactive). The GI50 (OVCAR-3) was 18.2 µM (inactive), the GI50 (LOX IMVI) was 22 µM (inactive) and the GI50 (UO-31) was 12.5 µM (inactive). The GI50 (SNB-19) was 10.7 µM (inactive), the GI50 (HCC 2998) was 22.6 µM (inactive) and the GI50 (CAKI-1) was 16.3 µM (inactive). The GI50 (OVCAR-4) was 18.8 µM (inactive) and the GI50 (NCI-H23) was 44.7 µM (inactive).
For `N#CC1=C(C#N)/C(=C(\C#N)C(C#N)C#N)N=C1N`, the GI50 (SK-MEL-5) was 17.3 µM (inactive), the GI50 (HCT-15) was 22.6 µM and the GI50 (HCT-116) was 27.4 µM (inactive). The GI50 (SF-268) was 32.7 µM (inactive), the GI50 (OVCAR-8) was 52 µM (inactive) and the GI50 (MOLT-4) was 13.4 µM (inactive). For the same compound, the GI50 (UACC-257) was 19.6 µM (inactive), the GI50 (TK-10) was > 32.6 µM (inactive) and the GI50 (SK-OV-3) was 57.9 µM (inactive). For the same compound, the GI50 (HOP-62) was 26.7 µM (inactive), the GI50 (SK-MEL-2) was 14.7 µM (inactive) and the GI50 (MDA-N) was 15.4 µM (inactive). The GI50 (T47D) was > 100 µM (inactive), the GI50 (CCRF-CEM) was 8.07 µM (inactive) and the GI50 (EKVX) was 43.9 µM (inactive). The GI50 (786-0) was 39.4 µM (inactive), the GI50 (SNB-75) was 41.8 µM (inactive) and the GI50 (SR) was 25.2 µM (inactive). For the same compound, the GI50 (COLO 205) was 26.9 µM (inactive), the GI50 (OVCAR-5) was 33.5 µM (inactive) and the GI50 (NCI-H226) was 30 µM (inactive). For the same compound, the GI50 (NCI-H522) was 13.8 µM (inactive), the GI50 (Hs-578T) was 28.2 µM (inactive) and the GI50 (UACC-62) was 15.1 µM (inactive). The GI50 (A549) was 21.4 µM (inactive), the GI50 (KM12) was 64.4 µM (inactive) and the GI50 (U-251) was 35.6 µM (inactive). For the same compound, the GI50 (NCI/ADR-RES) was 50.8 µM (inactive), the GI50 (HT-29) was 23.5 µM (inactive) and the GI50 (SW-620) was 28.5 µM (inactive). The GI50 (A498) was 25.9 µM (inactive), the GI50 (Malme-3M) was 17.1 µM (inactive) and the GI50 (HOP-92) was 28.2 µM (inactive). For the same compound, the GI50 (DU-145) was 38.9 µM (inactive), the GI50 (IGROV-1) was 50.1 µM (inactive) and the GI50 (K562) was 31.5 µM (inactive). For the same compound, the GI50 (BT-549) was 24.4 µM (inactive), the GI50 (ACHN) was 33.3 µM (inactive) and the GI50 (RPMI-8226) was 32.6 µM (inactive). For the same compound, the GI50 (RXF 393) was 31.9 µM (inactive), the GI50 (MDA-MB-435) was 16.9 µM (inactive) and the GI50 (SK-MEL-28) was 21.1 µM (inactive). For the same compound, the GI50 (SF-539) was 22.4 µM (inactive), the GI50 (SF-295) was 31.2 µM (inactive) and the GI50 (M14) was 15.6 µM (inactive). For the same compound, the GI50 (PC-3) was 28.7 µM (inactive), the GI50 (SN12C) was 49.4 µM (inactive) and the GI50 (MCF7) was 45.8 µM (inactive). For the same compound, the GI50 (NCI-H460) was 28.6 µM (inactive), the GI50 (MDA-MB-231) was 91.4 µM (inactive) and the GI50 (OVCAR-3) was 34.5 µM (inactive). For the same compound, the GI50 (LOX IMVI) was 19.1 µM (inactive), the GI50 (UO-31) was 35.5 µM (inactive) and the GI50 (SNB-19) was 51.9 µM (inactive). For the same compound, the GI50 (HCC 2998) was 33.4 µM (inactive), the GI50 (CAKI-1) was 46.2 µM (inactive) and the GI50 (OVCAR-4) was 28.2 µM (inactive). For the same compound, the GI50 (NCI-H23) was 32.1 µM (inactive).
